Results: EP4570793A1, “5-HT2A RECEPTOR INVERSE AGONIST, AND PREPARATION METHOD THEREFOR AND USE THEREOF” (Luye Innomind Pharma Shijiazhuang Co., Ltd., priority 2022, dated 2024)
Where two headings read alike, the source gives them in different places.

Key:
[1] = In-vitro liver microsomal stability (human); format: in vitro ADME; details: Human liver microsomes, 1 µM, 0.5 mg/mL, NADPH
Procedure: (§1) Test Example 3. Evaluation of In-Vitro Liver Microsomal Stability
(§2) • 1) Preparation of test sample working solution: A test sample was diluted to 100 µM with methanol. • 2) Preparation of liver microsome working solution: Liver microsomes were diluted to 0.56 mg/mL with 100 mM phosphate-buffered saline. • 3) Preparation of working solution of reduced nicotinamide adenine dinucleotide phosphate (NADPH): A proper amount of NADPH was weighed out and diluted to 20 mM with phosphate-buffered saline, and then an equal volume of a 60 mM MgCl2 solution was added. • 4) Preparation of stop solution: Tolbutamide was diluted to 20 ng/mL with acetonitrile to serve as a stop solution containing an internal standard.
(§3) • 1) Anti-adsorption EP tubes for incubation were prepared and labeled with species, test samples, control samples (testosterone and dextromethorphan), time points (0 min, 5 min, 10 min, 20 min, 30 min, 60 min, Blank60, and NCF60), etc. • 2) 2 µL of test or control sample working solution and 178 µL of liver microsome working solution were added to each tube. For the Blank tube, 2 µL of acetonitrile was added instead of the test sample. The tubes were preincubated in a water bath at 37 °C for about 10 min, with 3 replicates set up for each sample. • 3) After the pre-incubation was completed, 20 µL of NADPH working solution was added to each tube except for the 0 min and NCF60 tubes to start the reaction. For the NCF60 tube, 20 µL of phosphate-buffered saline (containing 30 mM MgCl2) was added. In the incubation system, the final concentration of the test or control sample was 1 µM, the final concentration of liver microsomes was 0.5 mg/mL, the final concentration of NADPH was 1 mM, and the final concentration of MgCl2 was 3 mM. • 4) For the 0 min sample, 600 µL of stop solution was added, followed by the addition of the NADPH working solution. For the other samples, after each of them was incubated for the corresponding time, 600 µL of stop solution was added to stop the reaction. • 5) After the reaction was stopped, each sample was vortexed for 30 s and then centrifuged at 13500 rpm for 10 min. Then, 100 µL of the supernatant was transferred to an EP tube, and 100 µL of Milli-Q water was added. The mixture was well mixed by vortexing and analyzed by LC-MS/MS. • 6) Testosterone and dextromethorphan were used as positive control samples under the same conditions to assess the stability and reliability of the system.
(§4) Table 2: Test data for the compounds of the present disclosure in human and rat liver microsomes

hERG potassium channels = hERG potassium channels (Homo sapiens, UniProt Q12809); assay: cell-based
hERG potassium channels, sequence (Q12809 whole entry): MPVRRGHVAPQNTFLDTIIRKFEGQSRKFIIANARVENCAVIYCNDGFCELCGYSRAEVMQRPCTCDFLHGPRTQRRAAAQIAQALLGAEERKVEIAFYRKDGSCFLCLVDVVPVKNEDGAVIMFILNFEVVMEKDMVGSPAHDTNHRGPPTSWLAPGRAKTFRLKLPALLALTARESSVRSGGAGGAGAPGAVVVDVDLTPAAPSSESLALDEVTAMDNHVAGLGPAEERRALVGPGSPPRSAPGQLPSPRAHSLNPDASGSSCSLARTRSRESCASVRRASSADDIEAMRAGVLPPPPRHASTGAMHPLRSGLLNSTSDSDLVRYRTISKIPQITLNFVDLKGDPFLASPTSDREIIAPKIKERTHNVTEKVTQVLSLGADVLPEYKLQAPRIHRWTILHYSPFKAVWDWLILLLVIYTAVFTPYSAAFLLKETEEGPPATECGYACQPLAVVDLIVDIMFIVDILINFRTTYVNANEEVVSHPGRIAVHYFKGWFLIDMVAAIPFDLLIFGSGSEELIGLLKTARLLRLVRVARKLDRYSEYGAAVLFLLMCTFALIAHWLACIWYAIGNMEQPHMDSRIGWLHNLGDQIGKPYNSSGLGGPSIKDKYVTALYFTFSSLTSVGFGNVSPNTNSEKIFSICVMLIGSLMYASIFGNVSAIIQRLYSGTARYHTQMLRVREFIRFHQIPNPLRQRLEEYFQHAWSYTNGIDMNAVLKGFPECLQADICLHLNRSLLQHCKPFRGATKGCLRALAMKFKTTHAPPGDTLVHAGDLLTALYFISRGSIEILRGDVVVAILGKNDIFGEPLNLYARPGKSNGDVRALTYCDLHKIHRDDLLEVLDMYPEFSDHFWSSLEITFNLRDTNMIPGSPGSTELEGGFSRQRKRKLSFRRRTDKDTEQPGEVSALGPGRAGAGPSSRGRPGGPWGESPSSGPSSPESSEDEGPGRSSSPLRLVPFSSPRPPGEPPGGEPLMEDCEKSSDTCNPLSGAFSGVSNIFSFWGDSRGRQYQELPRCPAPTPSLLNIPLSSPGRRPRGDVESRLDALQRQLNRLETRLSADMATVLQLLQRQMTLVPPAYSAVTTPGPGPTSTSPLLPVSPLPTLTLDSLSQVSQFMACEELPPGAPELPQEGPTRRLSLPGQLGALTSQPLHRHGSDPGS
Procedure: • Species & strain: CHO-hERG cell line (Chinese hamster ovary cells stably expressing hERG channels) • Culture medium: 90% F12, 10% fetal bovine serum, 100 µg/mL G418, and 100 µg/mL Hygromycin B • Culture conditions: incubator at 37 °C with 5% CO2 • Cryopreservation condition: liquid nitrogen
On the day of the test, the compound was diluted with DMSO to an intermediate concentration. Then, 10 µL of the intermediate-concentration compound was transferred to 4990 µL of extracellular fluid, achieving a 500-fold dilution to obtain the final concentration to be tested.
hERG potassium channel currents were recorded at room temperature by the whole-cell patch clamp technique in the CHO (Chinese hamster ovary) cells stably expressing hERG potassium channels. Glass microelectrodes were formed by pulling a glass electrode blank (BF150-86-10, Sutter) using a puller. The tip resistance after perfusion of electrode internal solution was about 2-5 MΩ. The glass microelectrodes could be connected to a patch clamp amplifier after being inserted into amplifier probes. The clamping voltage and data recording were controlled and recorded by a computer with a pClamp 10 software, with a sampling frequency of 10 kHz and a filtering frequency of 2 kHz. After achieving the whole-cell recording, the cells were clamped at -80 mV. The step voltage evoking hERG potassium current (IhERG) was changed from -80 mV to +20 mV by applying a 2 s depolarization voltage, followed by repolarization to -50 mV for 1 s, and then returned to -80 mV. This voltage stimulation was applied every 10 s, and after it was determined that the hERG potassium currents were stable (1 min), the administration process was started. Each test concentration of the compound was applied for at least 1 min, and at least 2 cells (n ≥ 2) were tested for each concentration.

5-HT2A receptor = 5-HT2A receptor (Homo sapiens, UniProt P28223); assay: Assay for 5-HT2A receptor inverse agonist activity (NIH3T3-5-HT2A R cells, Bright-Glo luciferase, cell inhibition rate)
5-HT2A receptor, sequence (P28223 whole entry): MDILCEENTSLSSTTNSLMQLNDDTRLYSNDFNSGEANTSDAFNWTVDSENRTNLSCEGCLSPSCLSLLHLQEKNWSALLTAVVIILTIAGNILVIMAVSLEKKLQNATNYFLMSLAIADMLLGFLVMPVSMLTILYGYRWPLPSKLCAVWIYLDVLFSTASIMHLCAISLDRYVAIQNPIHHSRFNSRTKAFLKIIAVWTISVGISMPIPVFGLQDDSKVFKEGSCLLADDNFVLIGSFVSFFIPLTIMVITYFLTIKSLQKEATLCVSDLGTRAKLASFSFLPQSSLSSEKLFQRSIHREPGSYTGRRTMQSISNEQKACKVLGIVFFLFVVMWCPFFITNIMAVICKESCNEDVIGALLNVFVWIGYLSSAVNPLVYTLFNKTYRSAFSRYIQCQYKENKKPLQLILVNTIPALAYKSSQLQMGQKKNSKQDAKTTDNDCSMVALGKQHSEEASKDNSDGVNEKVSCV
Procedure: Assay for 5-HT2A Receptor Inverse Agonist Activity
• Cell line: adherent cells NIH3T3-5-HT2A R • Cell culture medium: DMEM + 10% FBS (purchased from GBICO) • Cell culture plate: 96-well white/clear bottom plate (purchased from Perkin Elmer) • Detection kit: Bright-Glo™ Luciferase (purchased from Promega) • Detection instrument: BioTek multimode microplate reader
NIH3T3-5HT2A R cells in the logarithmic growth phase were seeded into a 96-well white/clear bottom plate at a density of 1000 cells/well and then cultured overnight in an incubator at 37 °C with 5% CO2. […] Duplicate wells were set up for each concentration. […] After the drug addition, the cells were cultured in the incubator at 37 °C with 5% CO2 for another 120 h. On the sixth day, a Bright-Glo™ Luciferase reagent was added to the cells in a volume equal to that of the cell culture medium. The plate was then incubated in the dark at room temperature for 20 min, with the plate shaker vibrating once every 5 min. The luminescence intensity was detected using a microplate reader, and the cell inhibition rate was calculated. Data were processed using GraphPad Prism 7.0 to obtain the cell inhibition rate curve and calculate IC50.

[2] = In-vitro liver microsomal stability (dog); format: in vitro ADME; details: Dog liver microsomes, 1 µM, 0.5 mg/mL, NADPH
Procedure: as §1, §2
as §3, with “system. […]” for “system.”

[3] = In-vitro liver microsomal stability (rat); format: in vitro ADME; details: Rat liver microsomes, 1 µM, 0.5 mg/mL, NADPH
Procedure: as §1, §2, §3, §4

[4] = 5-HT2A inverse agonist activity IC50 (nM), NIH3T3-5HT2A R cells, 120 h, luminescence

Row | Remaining amount% at 60 min [1] [%] | Remaining amount% at 60 min [3] [%] | IC50 (5-HT2A receptor) [nM] | Compound | IC50 (hERG potassium channels) [µM] | IC50 (5-HT2A receptor; [4]) [nM] | Remaining amount% at 60 min [2] [%]
1 | 38.94 | 54.78 |  | CN1CCC(N(Cc2ccc(F)cn2)C(=O)NCc2cnc(OCC(F)(F)F)c(Br)c2)CC1 [Compound 28] | > 30 |  | 
2 | 50.93 | 63.98 |  | CN1CCC(N(Cc2ccc(F)cn2)C(=O)NCc2cnc(OCC(F)(F)F)c(Cl)c2)CC1 [Compound 27] | > 30 |  | 
3 | 77.06 | 69.21 | 163 | CN1CCC(N(Cc2ccc(F)cn2)C(=O)NCc2ccc3c(ccn3C)c2)CC1 [Compound 12] | 2.22 |  | 
4 | 73.7 |  | 22.7 | CN1CC[C@H](N(Cc2ccc(F)cn2)C(=O)NCc2ccc(OCC(F)(F)F)nc2)[C@@H](F)C1 [Compound 66] | 2.99 |  | 85.1

Continued, compound first:

Row | Compound | Remaining amount% at 60 min [1] [%] | Remaining amount% at 60 min [3] [%] | IC50 (5-HT2A receptor) [nM] | IC50 (hERG potassium channels) [µM] | IC50 (5-HT2A receptor; [4]) [nM] | Remaining amount% at 60 min [2] [%]
5 | CN1CCC(N(Cc2ccc(F)cn2)C(=O)NCc2ccc(OCC(F)(F)F)cn2)CC1 [Compound 1] | 85.7 |  |  | 4.93 | 152 | 88.7
6 | CN1CCC(N(Cc2ccc(F)cn2)C(=O)NCc2ccc3[nH]ccc3c2)CC1 [Compound 9] | 93.1 |  |  | 3.12 | 28.2 | 45.3
7 | CN1CCC(N(Cc2ccc(F)cn2)C(=O)NCc2ccc(OCC(F)(F)F)nc2)C2(CC2)C1 (single isomer, unassigned) [Compound 50A] | 89.7 | 58.8 |  | 2.2 | 2.6 | 
